Reference: the NIST ThermoML archive (doi:10.1021/acs.jced.8b00142)
Numbers after ± are expanded uncertainties.

Experiments:
[1] = 86 kPa, Liquid, Vibrating tube method
[2] = wn = mass fraction of the nth substance listed; conditions: 86 kPa, Liquid, Vibrating tube method

Row | SMILES | mass density ([1]; 298.15 K) | mass density ([1]; 313.15 K) | mass density ([1]; 323.15 K) | mass density ([1]; 333.15 K) | mass density ([1]; 343.15 K) | mass density ([2]; 298.15 K, w1 = 0.2573) | mass density ([2]; 298.15 K, w1 = 0.3) | mass density ([2]; 298.15 K, w1 = 0.5) | mass density ([2]; 313.15 K, w1 = 0.2573) | mass density ([2]; 313.15 K, w1 = 0.3) | mass density ([2]; 313.15 K, w1 = 0.5) | mass density ([2]; 323.15 K, w1 = 0.3) | mass density ([2]; 323.15 K, w1 = 0.5) | mass density ([2]; 333.15 K, w1 = 0.3) | mass density ([2]; 333.15 K, w1 = 0.5) | mass density ([2]; 343.15 K, w1 = 0.3) | mass density ([2]; 343.15 K, w1 = 0.5) | mass density ([2]; 348.17 K, w1 = 0.2573)
1 | CN(CCO)CCO [N-methyldiethanolamine] | 1036.4 ± 4.1 kg/m3 | 1025.1 ± 4.1 kg/m3 | 1017.5 ± 4.1 kg/m3 | 1009.9 ± 4.1 kg/m3 | 1002.2 ± 4.1 kg/m3 |  |  |  |  |  |  |  |  |  |  |  |  | 
2 | CCCC[n+]1ccccc1.F[B-](F)(F)F [1-butylpyridinium tetrafluoroborate] | 1213.9 ± 4.2 kg/m3 | 1203.8 ± 4.2 kg/m3 | 1197 ± 4.2 kg/m3 | 1190.3 ± 4.2 kg/m3 | 1183.6 ± 4.2 kg/m3 |  |  |  |  |  |  |  |  |  |  |  |  | 
3 | CN(CCO)CCO [N-methyldiethanolamine] + O |  |  |  |  |  | 1020.5 ± 4 kg/m3 | 1024.7 ± 4 kg/m3 | 1042.5 ± 4 kg/m3 | 1013.5 ± 4 kg/m3 | 1017.1 ± 4 kg/m3 | 1032.8 ± 4 kg/m3 | 1009.6 ± 4 kg/m3 | 1026 ± 4 kg/m3 | 1002.7 ± 4 kg/m3 | 1018.7 ± 4 kg/m3 | 995.1 ± 4 kg/m3 | 1011.2 ± 4 kg/m3 | 988.9 ± 4 kg/m3
